Values of other authors, collected in EP0622459A1, “Fused proteins for preparing vasoactive intestinal polypeptide analogs, method of preparing same and recombinant plasmids and transformant microorganisms” (SANWA KAGAKU KENKYUSHO CO., LTD., priority 1993, dated 1994).
Ends that are not written are not given here.

Conditions: prior-art analogs, result in words

Leu¹⁷-VIP-OH: genetically engineered VIP analog of the prior art (JP-A-1-296996 and JP-A-3-280893) (HSDAVFTDNYTRLRKQLAVKKYLNSILN-OH; UniProt P01282 125-152, looked up, variant M17L)
biological activity compared with VIP: only comparable to naturally occurring VIP
